Values quoted from earlier work in US20100022769A1, “NOVEL POLYNITROGENATED SYSTEMS AS ANTI-HIV AGENTS” (priority 2006, published 2010).

Tests used:
[1] = related to its high positive charge in physiological medium
X4 strain of HIV = details: subject infected with a X4 strain of HIV
[2] = tested on: CCR5-dependent replication of HIV; details: virus recovered from patients who received AMD3100
[3] = development abandoned in 2001
CXCR4 = CXCR4 (Homo sapiens, UniProt P61073); details: times more active than AMD3100
CXCR4, sequence (P61073 whole entry): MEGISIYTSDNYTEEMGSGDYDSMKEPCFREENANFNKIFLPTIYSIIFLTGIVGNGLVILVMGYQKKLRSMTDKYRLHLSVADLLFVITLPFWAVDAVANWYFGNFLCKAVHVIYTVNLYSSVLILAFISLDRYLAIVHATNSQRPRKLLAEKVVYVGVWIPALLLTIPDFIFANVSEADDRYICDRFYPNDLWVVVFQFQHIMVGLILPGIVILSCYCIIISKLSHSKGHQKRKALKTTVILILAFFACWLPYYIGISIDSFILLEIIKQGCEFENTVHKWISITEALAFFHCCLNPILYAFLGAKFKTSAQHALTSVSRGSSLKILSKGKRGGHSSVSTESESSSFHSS

c1cc(CN2CCCNCCNCCCNCC2)ccc1CN1CCCNCCNCCCNCC1 [AMD3100]
oral bioavailability [1]: lack of oral bioavailability
reduction of the viral load (X4 strain of HIV): 0.8-0.9 log 10
inhibiting the in vivo CCR5-dependent replication of HIV [2]: not effective
cardiac toxicity [3]: possible cardiac toxicity

c1ccc(CNCc2ccc(CN3CCCNCCNCCCNCC3)cc2)nc1 [AMD3465]
activity relative to AMD3100 (CXCR4): up to 10 times
